# Data: ChEMBL document CHEMBL5465560, “Selectivity Literature for EUbOPEN Chemogenomic Library” (2024)
# Key:
# [1] = target: Tyrosine-protein kinase Lck (Homo sapiens, UniProt P06239); assay: Selectivity interaction (Upstate Kinase Profiler service (Millipore)) EUB0000056c LCK; conditions: at 1 µM
# [2] = target: T1, Dual specificity protein kinase TTK (Homo sapiens) (UniProt P33981); assay: Selectivity interaction (KinomeScan (DiscoverX)) EUB0000655a TTK; conditions: at 10 µM
# T1 sequence (whole entry): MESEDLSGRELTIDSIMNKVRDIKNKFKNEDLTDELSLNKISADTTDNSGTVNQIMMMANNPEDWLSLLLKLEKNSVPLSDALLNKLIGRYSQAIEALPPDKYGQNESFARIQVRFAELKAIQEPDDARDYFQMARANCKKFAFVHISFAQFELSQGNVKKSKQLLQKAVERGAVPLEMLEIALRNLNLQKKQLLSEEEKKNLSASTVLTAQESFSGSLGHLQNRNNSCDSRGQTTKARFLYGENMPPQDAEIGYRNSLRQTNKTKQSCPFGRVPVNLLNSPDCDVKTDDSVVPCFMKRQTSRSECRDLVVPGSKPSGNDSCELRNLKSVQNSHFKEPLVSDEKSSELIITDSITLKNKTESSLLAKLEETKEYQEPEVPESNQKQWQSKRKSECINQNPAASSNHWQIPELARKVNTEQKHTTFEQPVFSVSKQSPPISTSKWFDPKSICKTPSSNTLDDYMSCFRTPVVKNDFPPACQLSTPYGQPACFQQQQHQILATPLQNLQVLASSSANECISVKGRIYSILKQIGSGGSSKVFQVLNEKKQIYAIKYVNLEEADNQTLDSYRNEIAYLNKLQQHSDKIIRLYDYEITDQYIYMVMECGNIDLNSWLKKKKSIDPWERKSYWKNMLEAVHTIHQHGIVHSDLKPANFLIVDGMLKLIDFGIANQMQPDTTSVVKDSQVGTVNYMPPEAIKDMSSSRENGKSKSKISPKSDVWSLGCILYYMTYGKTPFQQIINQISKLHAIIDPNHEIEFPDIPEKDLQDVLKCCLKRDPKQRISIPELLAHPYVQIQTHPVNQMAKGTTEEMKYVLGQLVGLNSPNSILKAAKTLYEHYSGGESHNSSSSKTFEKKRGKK
# Mu-type opioid receptor = Mu-type opioid receptor (Homo sapiens, UniProt P35372); assay: Selectivity interaction (Panel of kinases, GPCRs, ion channels and transporters (enzymatic assay)) EUB0000266bCl OPRM1
# [3] = target: Tyrosine-protein kinase Blk (Homo sapiens) (UniProt P51451); assay: Selectivity interaction (KinomeScan (DiscoverX)) EUB0000666a BLK; conditions: at 10 µM
# [4] = target: Phosphatidylinositol 4,5-bisphosphate 3-kinase catalytic subunit beta isoform (Homo sapiens) (UniProt P42338); assay: Selectivity interaction (Adapta Assay) EUB0001632a PIK3CB; conditions: at 10 µM
# [5] = target: Serine/threonine-protein kinase 38 (Homo sapiens) (UniProt Q15208); assay: Selectivity interaction (ActivX KiNativ screen (kinase selectivity in THP-1 cell lysates)) EUB0000639a STK38; format: subcellular; conditions: lysate, at 0.01 µM
# [6] = target: Maternal embryonic leucine zipper kinase (Homo sapiens) (UniProt Q14680); assay: Selectivity interaction (KinomeScan (DiscoverX)) EUB0000695a MELK; conditions: at 100 nM
# [7] = target: T2, Serine/threonine-protein kinase BRSK2 (Homo sapiens) (UniProt Q8IWQ3); assay: Selectivity interaction (KinomeScan (DiscoverX)) EUB0000045b BRSK2
# T2 sequence (whole entry): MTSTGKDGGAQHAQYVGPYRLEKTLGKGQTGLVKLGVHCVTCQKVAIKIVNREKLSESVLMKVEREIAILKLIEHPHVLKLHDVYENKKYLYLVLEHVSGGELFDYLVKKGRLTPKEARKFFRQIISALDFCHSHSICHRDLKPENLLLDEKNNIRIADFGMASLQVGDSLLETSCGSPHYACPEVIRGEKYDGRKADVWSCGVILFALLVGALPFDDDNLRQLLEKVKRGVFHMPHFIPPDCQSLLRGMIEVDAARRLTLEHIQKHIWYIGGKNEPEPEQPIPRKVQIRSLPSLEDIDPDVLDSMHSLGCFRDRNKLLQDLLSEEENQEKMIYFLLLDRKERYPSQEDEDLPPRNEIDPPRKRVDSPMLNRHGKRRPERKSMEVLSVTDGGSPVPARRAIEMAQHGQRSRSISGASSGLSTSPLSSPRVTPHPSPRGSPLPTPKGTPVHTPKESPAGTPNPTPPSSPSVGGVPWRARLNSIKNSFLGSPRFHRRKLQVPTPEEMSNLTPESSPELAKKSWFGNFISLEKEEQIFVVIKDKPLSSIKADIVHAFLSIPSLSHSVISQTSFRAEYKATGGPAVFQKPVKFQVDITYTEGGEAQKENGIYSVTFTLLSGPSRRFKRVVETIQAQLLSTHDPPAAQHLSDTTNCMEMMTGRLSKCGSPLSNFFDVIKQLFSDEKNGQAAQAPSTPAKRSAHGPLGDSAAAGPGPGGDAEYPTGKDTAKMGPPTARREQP
# [8] = target: T3, Inhibitor of nuclear factor kappa-B kinase subunit alpha (Homo sapiens) (UniProt O15111); assay: Selectivity interaction (KinomeScan (DiscoverX)) EUB0000045b CHUK
# T3 sequence (whole entry): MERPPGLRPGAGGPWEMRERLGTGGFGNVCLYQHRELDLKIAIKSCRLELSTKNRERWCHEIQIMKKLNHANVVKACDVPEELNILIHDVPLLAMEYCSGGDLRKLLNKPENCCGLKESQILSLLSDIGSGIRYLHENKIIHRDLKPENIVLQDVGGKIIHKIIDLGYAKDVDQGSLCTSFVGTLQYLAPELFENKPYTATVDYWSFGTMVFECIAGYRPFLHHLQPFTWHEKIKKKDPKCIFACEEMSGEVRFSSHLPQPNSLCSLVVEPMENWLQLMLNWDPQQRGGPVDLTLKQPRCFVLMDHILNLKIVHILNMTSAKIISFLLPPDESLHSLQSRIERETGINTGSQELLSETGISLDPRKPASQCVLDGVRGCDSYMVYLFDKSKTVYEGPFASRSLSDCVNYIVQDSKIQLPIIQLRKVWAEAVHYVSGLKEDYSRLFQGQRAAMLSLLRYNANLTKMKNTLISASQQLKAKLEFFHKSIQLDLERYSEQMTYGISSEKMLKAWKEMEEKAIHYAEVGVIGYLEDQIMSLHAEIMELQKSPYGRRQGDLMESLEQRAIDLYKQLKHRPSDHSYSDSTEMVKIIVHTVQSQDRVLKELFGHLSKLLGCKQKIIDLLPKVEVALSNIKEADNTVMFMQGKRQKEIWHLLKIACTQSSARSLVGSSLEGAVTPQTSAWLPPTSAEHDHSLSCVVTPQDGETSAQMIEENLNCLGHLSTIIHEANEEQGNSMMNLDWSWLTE
# [9] = target: T1, Dual specificity protein kinase TTK (Homo sapiens); assay: Selectivity interaction (Ambit KINOMEscan and KiNATiv profiling in Jurkat cells) EUB0000090b TTK; format: cell-based; conditions: at 1 µM
# Chain of Phosphatidylinositol 4,5-bisphosphate 3-kinase catalytic subunit beta isoform (Homo sapiens) (P42338 whole entry, looked up, canonical isoform): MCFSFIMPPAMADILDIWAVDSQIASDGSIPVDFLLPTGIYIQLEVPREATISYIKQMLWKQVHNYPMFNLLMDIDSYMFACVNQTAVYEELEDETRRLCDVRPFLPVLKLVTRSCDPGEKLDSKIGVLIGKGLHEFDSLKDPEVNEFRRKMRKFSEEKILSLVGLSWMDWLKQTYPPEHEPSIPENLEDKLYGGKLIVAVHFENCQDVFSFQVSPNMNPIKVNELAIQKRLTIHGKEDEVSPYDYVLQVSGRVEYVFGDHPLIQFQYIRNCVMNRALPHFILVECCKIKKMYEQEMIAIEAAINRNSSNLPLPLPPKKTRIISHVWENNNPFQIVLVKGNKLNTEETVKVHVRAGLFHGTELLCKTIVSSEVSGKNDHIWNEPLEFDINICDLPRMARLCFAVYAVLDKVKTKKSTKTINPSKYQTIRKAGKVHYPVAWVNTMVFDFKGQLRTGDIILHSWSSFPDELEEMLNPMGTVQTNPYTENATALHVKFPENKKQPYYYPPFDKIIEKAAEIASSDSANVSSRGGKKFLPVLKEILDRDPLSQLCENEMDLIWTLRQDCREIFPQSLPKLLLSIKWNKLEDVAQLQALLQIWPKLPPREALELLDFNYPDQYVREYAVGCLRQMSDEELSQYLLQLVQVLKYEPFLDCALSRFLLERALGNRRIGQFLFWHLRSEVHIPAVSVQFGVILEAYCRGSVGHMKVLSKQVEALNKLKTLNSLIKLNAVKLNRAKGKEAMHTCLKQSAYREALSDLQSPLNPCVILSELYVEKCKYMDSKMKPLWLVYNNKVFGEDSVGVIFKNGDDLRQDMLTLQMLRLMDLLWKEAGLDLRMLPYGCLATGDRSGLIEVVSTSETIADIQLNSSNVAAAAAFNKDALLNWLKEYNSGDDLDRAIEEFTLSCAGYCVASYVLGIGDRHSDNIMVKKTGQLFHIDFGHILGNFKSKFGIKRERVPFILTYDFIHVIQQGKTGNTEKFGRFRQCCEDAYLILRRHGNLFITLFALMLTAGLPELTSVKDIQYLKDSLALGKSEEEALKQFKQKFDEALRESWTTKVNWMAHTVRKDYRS
# Chain of Tyrosine-protein kinase Blk (Homo sapiens) (P51451 2-505 limits assumed): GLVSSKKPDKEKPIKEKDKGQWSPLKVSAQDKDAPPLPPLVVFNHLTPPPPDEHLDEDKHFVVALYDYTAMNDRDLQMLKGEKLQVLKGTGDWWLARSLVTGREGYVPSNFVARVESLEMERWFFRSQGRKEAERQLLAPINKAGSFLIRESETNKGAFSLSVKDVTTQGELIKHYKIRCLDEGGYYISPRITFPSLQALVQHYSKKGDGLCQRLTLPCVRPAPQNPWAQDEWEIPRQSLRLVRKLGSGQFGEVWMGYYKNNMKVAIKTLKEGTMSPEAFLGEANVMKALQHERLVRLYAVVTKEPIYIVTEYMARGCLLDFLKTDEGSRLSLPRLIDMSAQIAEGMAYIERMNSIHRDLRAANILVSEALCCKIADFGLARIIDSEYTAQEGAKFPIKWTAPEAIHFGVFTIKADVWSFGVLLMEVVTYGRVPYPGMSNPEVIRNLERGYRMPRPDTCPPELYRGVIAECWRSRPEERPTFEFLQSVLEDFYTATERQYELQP
# Chain of Serine/threonine-protein kinase 38 (Homo sapiens) (Q15208 2-465 limits assumed): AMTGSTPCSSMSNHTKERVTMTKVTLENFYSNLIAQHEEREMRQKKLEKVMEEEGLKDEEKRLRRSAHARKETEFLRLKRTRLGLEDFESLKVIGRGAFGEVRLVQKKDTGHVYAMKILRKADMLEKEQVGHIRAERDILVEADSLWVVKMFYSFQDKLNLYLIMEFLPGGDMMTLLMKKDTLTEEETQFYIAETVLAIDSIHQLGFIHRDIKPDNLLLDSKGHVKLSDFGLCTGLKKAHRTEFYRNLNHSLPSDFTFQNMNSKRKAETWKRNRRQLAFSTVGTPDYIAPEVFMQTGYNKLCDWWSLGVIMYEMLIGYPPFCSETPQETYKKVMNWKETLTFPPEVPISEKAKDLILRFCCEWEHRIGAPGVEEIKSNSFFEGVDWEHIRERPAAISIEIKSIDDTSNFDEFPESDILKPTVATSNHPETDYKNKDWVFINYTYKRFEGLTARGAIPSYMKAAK
# Chain of Maternal embryonic leucine zipper kinase (Homo sapiens) (Q14680 whole entry, looked up): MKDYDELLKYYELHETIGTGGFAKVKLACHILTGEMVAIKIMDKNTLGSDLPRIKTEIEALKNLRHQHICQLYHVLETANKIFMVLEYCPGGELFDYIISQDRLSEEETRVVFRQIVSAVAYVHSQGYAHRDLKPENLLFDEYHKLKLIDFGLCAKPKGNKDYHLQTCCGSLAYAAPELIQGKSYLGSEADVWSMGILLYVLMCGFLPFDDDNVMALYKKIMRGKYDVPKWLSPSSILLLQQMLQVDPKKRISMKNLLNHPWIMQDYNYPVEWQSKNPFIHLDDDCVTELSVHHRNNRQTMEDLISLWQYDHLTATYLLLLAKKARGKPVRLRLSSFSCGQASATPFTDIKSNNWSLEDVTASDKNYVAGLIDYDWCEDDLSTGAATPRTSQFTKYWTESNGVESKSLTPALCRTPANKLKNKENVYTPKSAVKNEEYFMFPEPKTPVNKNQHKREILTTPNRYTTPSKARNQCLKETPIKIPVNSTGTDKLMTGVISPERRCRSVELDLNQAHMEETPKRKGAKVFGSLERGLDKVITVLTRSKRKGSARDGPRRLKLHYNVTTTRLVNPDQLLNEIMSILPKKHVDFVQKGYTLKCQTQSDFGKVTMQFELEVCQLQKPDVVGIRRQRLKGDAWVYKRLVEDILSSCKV
# Chain of Tyrosine-protein kinase Lck (P06239 2-509 limits assumed): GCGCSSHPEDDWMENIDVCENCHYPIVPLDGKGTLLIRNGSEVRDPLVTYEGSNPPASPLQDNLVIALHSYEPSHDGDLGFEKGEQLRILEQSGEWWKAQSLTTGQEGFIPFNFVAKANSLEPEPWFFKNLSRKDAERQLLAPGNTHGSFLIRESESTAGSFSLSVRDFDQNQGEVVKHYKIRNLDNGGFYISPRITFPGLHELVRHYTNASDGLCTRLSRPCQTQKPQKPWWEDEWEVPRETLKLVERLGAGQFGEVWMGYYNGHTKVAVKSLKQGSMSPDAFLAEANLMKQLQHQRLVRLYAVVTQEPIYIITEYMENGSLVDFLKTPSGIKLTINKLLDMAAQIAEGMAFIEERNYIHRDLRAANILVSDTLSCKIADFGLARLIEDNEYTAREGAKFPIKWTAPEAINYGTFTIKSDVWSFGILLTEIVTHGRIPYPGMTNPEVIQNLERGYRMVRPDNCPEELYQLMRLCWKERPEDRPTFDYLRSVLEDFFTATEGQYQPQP
# Chain of Mu-type opioid receptor (P35372 whole entry): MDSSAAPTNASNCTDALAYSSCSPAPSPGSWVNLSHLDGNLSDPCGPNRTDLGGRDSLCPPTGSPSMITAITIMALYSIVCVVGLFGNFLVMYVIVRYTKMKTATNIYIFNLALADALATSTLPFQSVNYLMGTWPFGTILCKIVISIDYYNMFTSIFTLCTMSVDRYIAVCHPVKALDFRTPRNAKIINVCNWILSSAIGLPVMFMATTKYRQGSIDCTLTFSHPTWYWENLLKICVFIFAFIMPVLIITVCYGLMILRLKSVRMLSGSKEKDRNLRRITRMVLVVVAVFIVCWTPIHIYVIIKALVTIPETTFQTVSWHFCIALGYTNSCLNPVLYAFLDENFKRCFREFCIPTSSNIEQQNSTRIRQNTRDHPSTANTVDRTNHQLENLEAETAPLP
smiles,measurement,setting,value
Cc1ccc(-c2ccc3c(ccc4sc5c(c43)NC[C@@H](C)NC5=O)n2)cn1,% of inhibition,[1],-3%
CN(C)CCOc1ccc(-c2nc(-c3ccncc3)c(-c3ccc4c(c3)CC/C4=N\O)[nH]2)cc1,% of control,[2],94%
CCn1c(-c2nc3cc(C(=O)N4CCCC(N)C4)ccc3n2C)cc2ccccc21 (configuration not stated),pXC50,Mu-type opioid receptor,< 4 M
O=C(NOC[C@H](O)CO)c1ccc(F)c(F)c1Nc1ccc(I)cc1F,% of control,[3],83%
Cn1cc(-n2cnc3c(NCc4nc5cc(Cl)c(Cl)cc5[nH]4)nc(N4CCOCC4)nc32)cn1,% of inhibition,[4],-11.2%
CC[C@@H]1[C@H](F)C(=O)N[C@@H]1COc1nccc2cc(C(N)=O)c(OC)cc12 [ZIMLOVISERTIB],% of inhibition,[5],1.5%
Cc1cc(F)c(C(=O)Nc2cccc(-c3nncn3C(C)C)n2)cc1-n1cnc(C2CC2)c1,% of control,[6],100%
C=CC(=O)Nc1cc(-n2c(=O)ccc3cnc4ccc(-c5ccc(NS(C)(=O)=O)cc5)cc4c32)ccc1C,% of control,[7]; at 1 µM,84%
same,% of control,[7]; at 10 µM,100%
same,% of control,[8]; at 1 µM,100%
same,% of control,[8]; at 10 µM,100%
CN(C)C/C=C/C(=O)Nc1ccc(C(=O)N2CCCC(Nc3ncc(Cl)c(-c4c[nH]c5ccccc45)n3)C2)cc1 (configuration not stated),% of control,[9],81%
